Several values for one entry are separate records, joined by “and”; a condition that tells them apart may be missing. Equal values may be shown once. Read-outs that look alike come from different tables or passages of the source.
Assays:
UTS2R M134T = assay: TGFα-shedding assay on UTS2R mutant M134T; assay type: cell-based, human; conditions: cutoff value set to −1, single replicates
UTS2R D130G = assay: TGFα-shedding assay on UTS2R SNV mutant D130G; assay type: cell-based, human; conditions: cutoff value set to −1, single replicates
[1] = biological target: T1, UTS2R (β-arrestin 1 recruitment) (Homo sapiens, UniProt Q9UKP6); assay: NanoBiT β-arrestin 1 recruitment assay for UTS2R; assay type: cell-based; conditions: β-arrestin 1, Fig. 1c
T1 construct: expressed in transfected cells; host or cells: HEK293A

UTS2R N297A = assay: TGFα-shedding assay on UTS2R mutant N297A; assay type: cell-based, human; conditions: cutoff value set to −1, single replicates
FLAG-UTS2R = biological target: T2, FLAG-UTS2R (Homo sapiens, UniProt Q9UKP6); assay: Competitive binding assay: biotin-UT2 pulldown of FLAG-UTS2R from HEK293 membrane fraction; conditions: membrane fraction of HEK293 cells expressing FLAG-UTS2R, streptavidin beads, western blot
T2 construct: expressed in transfected cells; host or cells: HEK293
Protocol: HEK293 cells were transfected with the plasmid encoding FLAG-UTS2R and were serum-starved for 6 h before experimentation. Cells were washed twice with ice-cold PBS. Hypotonic solution (50 mM HEPES, pH 7.5 with protease inhibitor cocktails) was added to the cell plate, and the cells were harvested by scraping. Cells were homogenized using a dounce homogenizer (IKA EUROSTAR 20 digital) at 2,000 rpm for 20 strokes at 4 °C, and further homogenized using a tissue rupture (Qiagen) for 5 s at 4 °C. The homogenate was centrifuged at 800 x g for 10 min at 4 °C to remove unbroken cells and the nucleus. The supernatant was further centrifuged at 30,000×g for 30 min at 4° (CP80NX, himac). The resulting pellet was used as crude membrane fraction and was suspended in hyperosmotic solution (50 mM HEPES, pH 7.5, 250 mM NaCl, 2 mM EDTA with protease inhibitor).
The biotin-UT2-bound UTS2R complex was solubilized using a hyperosmotic buffer containing detergent (N-Dodecyl-β-D-maltopyranoside; DDM, 5× CMC) and pulled down using streptavidin magnetic beads. The suitable beads for the experiment were selected from 5 types (Supplementary Fig. 1d, Dynabeads Streptavidin Trial Kit, Thermo Fisher, and Streptavidin magnetic beads, NEB) and denatured with SDS buffer. […]

UTS2R V159M = assay: TGFα-shedding assay on UTS2R SNV mutant V159M; assay type: cell-based, human; conditions: cutoff value set to −1, single replicates
UTS2R G68C = assay: TGFα-shedding assay on UTS2R SNV mutant G68C; assay type: cell-based, human; conditions: cutoff value set to −1, single replicates
[2] = system: human induced pluripotent stem cell-derived cardiomyocytes (hiPSC-CMs); assay: Field potential recording (MEA) in hiPSC-CMs; assay type: cell-based; conditions: for prolonged FPD: 1 µM remdesivir; for FPD delay: remdesivir with UTS2R antagonist (urantide)
Protocol: Human induced pluripotent stem cell-derived cardiomyocytes (hiPSC-CMs) were purchased from Fujifilm Cellular Dynamics, Inc. (CDI; iCell cardiomyocytes 2.0). To prepare the probe (MED-PG515A, Alpha MED Sciences), the recording areas were coated with fibronectin and dissolved in Dulbecco’s phosphate-buffered saline to create a 50 µg/mL solution. The recording area was covered with 1–2 µL fibronectin solution, and the probes were incubated at 37 °C for at least 1 h. Cells were thawed and suspended in iCell Cardiomyocytes Plating Medium (CDI) and plated onto the probes at a density of 3.5×10^4 cells in a 2 µL plating medium. The cells were incubated at 37 °C in 5% CO2 for 3–4 h before filling each probe with 1 mL iCell cardiomyocytes maintenance medium (CDI), which was used as the culture medium. The medium was changed every 2–3 days, with the cells cultured in the probes for 5–14 days to obtain a sheet of cardiomyocytes with spontaneous and synchronous electrical activity.
FP recording was carried out[35],[60]. Before measuring FPs, iCell cardiomyocyte sheets were equilibrated for at least 4 h in a fresh culture medium using a 5% CO2 incubator at 37 °C. After equilibration, the probes were transferred to the multi-electrode array (MEA) system (MED64, Alpha med Scientific) and incubated in a humidified 5% CO2 atmosphere. The stability and constancy of the waveforms were confirmed by monitoring the signals for at least 30 min. Once the FPs reached a stable state, they were recorded for 10 min at the baseline and then 24, 48, and 72 h after drug treatment. The stock solutions of drugs were prepared in dimethyl sulfoxide (DMSO) or distilled water at a 1000-fold target concentration. The stock solution was diluted in a culture medium to a final concentration of 0.1% DMSO.
The FP duration (FPD) was defined as the duration from the first to the second peak in FP[35]. The FPD was corrected for the beat rate (inter-spike interval (ISI)) with Fridericia’s formula (Eq. 1), which was the primary method of correction in this study:1 (FPDcF=FPD/(ISI/1000)^1/3).

[3] = biological target: T3, UTS2R (β-arrestin 2 recruitment) (Homo sapiens, UniProt Q9UKP6); assay: NanoBiT β-arrestin 2 recruitment assay for UTS2R; assay type: cell-based; conditions: β-arrestin 2, Supplementary Fig. 1b
T3 construct: expressed in transfected cells; host or cells: HEK293A

hiPS-CMs = assay: Perforated patch-clamp, spontaneous action potentials (APD90) of hiPS-CMs; assay type: cell-based, human; conditions: 10 µM remdesivir, 72 h
[4] = set-up: method as in earlier work; conditions: intravenous injection, healthy adults; cited from earlier work
[5] = cited from earlier work
UTS2R D130N = biological target: T4, UTS2R D130N (Homo sapiens, UniProt Q9UKP6, D130N); assay: TGFα-shedding assay on UTS2R mutant D130N; assay type: cell-based
T4 construct: expressed in transfected cells; host or cells: HEK293A

UTS2R A249G = assay: TGFα-shedding assay on UTS2R SNV mutant A249G; assay type: cell-based, human; conditions: cutoff value set to −1, single replicates
[6] = system: ERK1/2 phosphorylation in HEK293 cells overexpressing UTS2R; assay: Western blot of ERK1/2 phosphorylation in HEK293 cells overexpressing UTS2R; assay type: cell-based, human; conditions: application for up to 72 h
[7] = system: neonatal rat cardiomyocytes (NRCMs); conditions: for Contraction [a.u.]: 48 h
[8] = system: mitochondrial respiratory complex proteins; assay: Western blot of mitochondrial respiratory complex proteins in UTS2R-transfected HEK293A cells; assay type: cell-based, human; conditions: 10 μM remdesivir, 48 h
UTS2R T304A = assay: TGFα-shedding assay on UTS2R mutant T304A; assay type: cell-based, human; conditions: cutoff value set to −1, single replicates

T4 sequence (Q9UKP6 whole entry D130N): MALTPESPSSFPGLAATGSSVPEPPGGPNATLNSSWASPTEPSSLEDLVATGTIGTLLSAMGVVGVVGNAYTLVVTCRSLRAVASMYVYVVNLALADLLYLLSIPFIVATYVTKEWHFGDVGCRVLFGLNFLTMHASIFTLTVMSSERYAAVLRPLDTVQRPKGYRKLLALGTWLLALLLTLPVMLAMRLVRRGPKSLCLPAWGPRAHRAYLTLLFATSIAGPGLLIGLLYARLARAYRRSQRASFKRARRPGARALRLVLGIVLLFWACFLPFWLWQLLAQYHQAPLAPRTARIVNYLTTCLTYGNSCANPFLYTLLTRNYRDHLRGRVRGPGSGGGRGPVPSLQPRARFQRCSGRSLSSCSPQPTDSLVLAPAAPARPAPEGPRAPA
T2 sequence (Q9UKP6 whole entry): as the sequence (Q9UKP6 whole entry D130N) above, with N130D counted along it
T3 sequence (Q9UKP6 whole entry): as the sequence (Q9UKP6 whole entry D130N) above, with N130D counted along it
T1 sequence (Q9UKP6 whole entry): as the sequence (Q9UKP6 whole entry D130N) above, with N130D counted along it

## CCC(CC)COC(=O)[C@H](C)N[P@](=O)(OC[C@H]1O[C@@](C#N)(c2ccc3c(N)ncnn23)[C@H](O)[C@@H]1O)Oc1ccccc1 [remdesivir]
UTS2R M134T
  ⊿pEC50 compared to WT UTS2R: -1
UTS2R D130G
  ⊿pEC50 compared to WT UTS2R: > 0.3 and 0.2569 and 0.39 and 0.2404 and 0.3246
[1]
  β-arrestin recruitment response: failed to induce a β-arrestin recruitment response
UTS2R N297A
  ⊿pEC50 compared to WT UTS2R: -1 and -0.7407
FLAG-UTS2R
  biotin–UT2-mediated UTS2R pulldown: significantly impaired
UTS2R V159M
  ⊿pEC50 compared to WT UTS2R: > 0.3 and 0.3136 and 0.3109 and 0.3308 and 0.4558
UTS2R G68C
  ⊿pEC50 compared to WT UTS2R: > 0.3 and 0.5256 and 0.7054 and 0.6735 and 0.5172
[2]; 24 h
  prolonged FPD: 1.32 ± 1.38%
  FPD delay: −1.71 ± 1.60%
[2]; 48 h
  prolonged FPD: 5.60 ± 1.60%
  FPD delay: −0.61 ± 0.11%
[2]; 72 h
  prolonged FPD: 15.57 ± 3.49%
[3]
  β-arrestin recruitment response: failed to induce a β-arrestin recruitment response
hiPS-CMs
  APD90 (action potential duration at 90% repolarization): significantly prolonged
[4]
  maximum plasma concentration: 9.03 µM
[5]; ACTT-1 trial, patients receiving remdesivir
  patients showing arrhythmias (other than atrial fibrillation, supraventricular tachycardia, ventricular tachycardia, ventricular fibrillation): 0.2 % of patients
[5]
  time to resolution of cardiac adverse effects after discontinuing remdesivir: 24 to 48 h
UTS2R D130N; D130N mutation vs WT, TGFα-shedding
  receptor activation of D130N mutant: significantly upregulated
UTS2R D130N; D130N, cutoff value set to −1, single replicates
  ⊿pEC50 compared to WT UTS2R: 0.5051 and 0.5402 and 0.5471 and 0.5928 and 0.4845
UTS2R A249G
  ⊿pEC50 compared to WT UTS2R: > 0.3 and 0.2782 and 0.2736 and 0.3671 and 0.2913
[6]
  phosphorylation of ERK1/2: long-lasting and dose-dependent phosphorylation of ERK1/2
[7]; Fig.4a, 1 µM remdesivir, pacing, replicates
  Contraction [a.u.]: 0.1429 a.u. and 0.1533 a.u. and 0.1024 a.u.
[7]; Fig.4a, urantide (100 nM) + 1 µM remdesivir
  Contraction [a.u.]: 0.2641 a.u. and 0.2651 a.u. and 0.2715 a.u.
[7]; Fig.4b, 1 µM remdesivir, pacing, replicates
  Contraction [a.u.]: 0.1019 a.u. and 0.1158 a.u. and 0.1194 a.u.
[7]; Fig.4b, PTX (150 ng/mL) + 1 µM remdesivir
  Contraction [a.u.]: 0.3302 a.u. and 0.3344 a.u. and 0.3245 a.u.
[7]; Fig.4b, YM-254890 (1 μM) + 1 µM remdesivir
  Contraction [a.u.]: 0.108 a.u. and 0.1376 a.u. and 0.1361 a.u.
[7]; chronic remdesivir treatment, constant pacing
  contractility of NRCMs: reduced contractility
[8]
  steady-state levels of mitochondrial respiratory complex proteins: did not affect
UTS2R T304A
  ⊿pEC50 compared to WT UTS2R: -1

Reference: PMC10175918 (Communications Biology, 2023)
